Earlier results as cited in patent US6297239A, “Inhibitors of prenyl-protein transferase” (Merck & Co., Inc., priority 1998, dated 2001).

System: farnesyl-protein transferase
Conditions: via inhibition of HMG-CoA reductase

| Compound | indirect inhibition of farnesyl-protein transferase in vivo |
| --- | --- |
| CC[C@H](C)C(=O)O[C@H]1CCC=C2C=C[C@H](C)[C@H](CC[C@@H]3C[C@@H](O)CC(=O)O3)[C@H]21 [compactin] | Indirect inhibition |
| CC[C@H](C)C(=O)O[C@H]1C[C@@H](C)C=C2C=C[C@H](C)[C@H](CC[C@@H]3C[C@@H](O)CC(=O)O3)[C@H]21 [lovastatin] | Indirect inhibition |
